Counter-ions that a name gives are not always drawn.
Legend:
[1] = test system: tetracycline inducible gene expression system (CHO-K1 Tet-IGF1 cells); assay: DOX-induced IGF-1 release from CHO-K1 Tet-IGF1 cells (ELISA); assay type: cell-based, Chinese hamster; conditions: encapsulated and unencapsulated CHO-K1 Tet-IGF1 cells, 24 hours
Description: Chinese hamster ovary cells (CHO-K1 Tet-On, Clontech Laboratories, Mountain View, Calif.), stably transfected to express the transactivator protein (rtTA) for a tetracycline inducible gene expression system, were cultured at 37° C. and 5% CO2 in DMEM supplemented with 10% tetracycline-free FBS (Clontech), 1% penicillin/streptomycin (Invitrogen, Carlsbad, Calif.), and 200 μg/mL G418 (Sigma-Aldrich). All cell counting was done using Trypan Blue exclusion and the COUNTESS® Automated Cell Counter (Invitrogen). […]
The quantity of human IGF-1 from each supernatant sample was determined using ELISA (R&D Systems, Minneapolis, Minn.) and SPECTRAMAX® Absorbance plate reader (Molecular Devices, Sunnydale, Calif.). All samples were run in triplicate and amount released was normalized to one million viable cells per sample as counted at the end of each study.
Modified and unmodified cells were plated in 6-well tissue culture plates at a density of 3×10^5 cells per well (n=6 per cell type). […] At the end of the study, cells were trypsinized and counted.
Modified encapsulated and unencapsulated cells were plated into 12-well tissue culture plates. […] At the end of the study, cells were trypsinized and counted.
Encapsulated modified and unmodified cells were plated in 12-well tissue culture plates at an equal density per well and cultured at 32° C. […] On day 10, capsules were solubilized and cells were counted.

CHO-K1 Tet-IGF1 cells = assay: Co-culture of CHO-K1 Tet-IGF1 cells with DOX loaded PLGA microspheres or bolus DOX, IGF-1 ELISA; assay type: cell-based, Chinese hamster; conditions: total 2 μg DOX over 24 hours, unencapsulated and encapsulated cultures
Description: Cells were encapsulated and encapsulated cell count and viability were determined as described in Examples 1 and 2. Microencapsulated and unencapsulated CHO-K1 Tet-IGF1 cells were co-cultured with DOX loaded PLGA microspheres to assess DOX-inducible IGF-1 synthesis and delivery. Approximately 5×10^5 encapsulated or 5×10^4 unencapsulated cells were plated per well in 12-well plates. After incubating cultures for 24 hours at 37° C., medium was completely removed from each well and 2 mL fresh media containing one of the following was added to each well (n=3): 1 μg/mL DOX (Clontech), 1.6 mg of DOX loaded PLGA microspheres, 1.6 mg of unloaded PLGA control microspheres, or no DOX. The mass of spheres used in these studies was calculated to release a total of 2 μg of DOX after 24 hours of incubation as determined by the results of the cumulative in vitro release. Cultures were incubated for another 24 hours, at which time the supernatant from each culture was removed and stored at −20° C. for later measurement. For unencapsulated cultures, cells were trypsinized and counted using Trypan Blue exclusion. For encapsulated cultures, cells were collected via alginate solubilization prior to counting. IGF-1 was quantified as described in Example 2.

## C[C@H]1c2cccc(O)c2C(=O)C2=C(O)[C@]3(O)C(=O)C(C(N)=O)=C(O)[C@@H](N(C)C)[C@@H]3[C@@H](O)[C@@H]21 [DOX, doxycycline hydrochloride]
[1]
  DOX concentration giving detectable IGF-1 release: ≥ 0.125 µg/mL
CHO-K1 Tet-IGF1 cells
  IGF-1 synthesis and delivery after 24 hours: induced

From US20130189366A1, “DRUG DELIVERY SYSTEMS AND METHODS OF USE” (Brown University, priority 2012, published 2013)
